From ChEMBL document CHEMBL1201862, “PubChem BioAssay data set” (2004)
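How tested: cells in 96-well plates exposed to compound for 48 hours at five concentrations. GI50: concentration for 50% inhibition of growth.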 The source made the active and inactive calls. Cut-off read from the data, not from the text of the source: active = GI50 up to about 1.1 µM and inactive = higher.

Tests used:
Test in all cases: growth of human tumour cells (NCI), 48 h
HL-60 = system: HL-60
MOLT-4 = system: MOLT-4
NCI-H226 = system: NCI-H226
SNB-19 = system: SNB-19
HOP-92 = system: HOP-92
NCI-H460 = system: NCI-H460
A498 = system: A498
LOX IMVI = system: LOX IMVI
HCT-15 = system: HCT-15
M14 = system: M14
SK-OV-3 = system: SK-OV-3
SNB-75 = system: SNB-75
T47D = system: T47D
NCI/ADR-RES = system: NCI/ADR-RES
SR = system: SR
SK-MEL-28 = system: SK-MEL-28
BT-549 = system: BT-549
Hs-578T = system: Hs-578T
HCC 2998 = system: HCC 2998
NCI-H522 = system: NCI-H522

Structure (SMILES) | GI50 (HL-60) | GI50 (MOLT-4) | GI50 (NCI-H226) | GI50 (SNB-19) | GI50 (HOP-92) | GI50 (NCI-H460) | GI50 (A498) | GI50 (LOX IMVI) | GI50 (HCT-15) | GI50 (M14) | GI50 (SK-OV-3) | GI50 (SNB-75) | GI50 (T47D) | GI50 (NCI/ADR-RES) | GI50 (SR) | GI50 (SK-MEL-28) | GI50 (BT-549) | GI50 (Hs-578T) | GI50 (HCC 2998) | GI50 (NCI-H522)
O=S(=O)(O)c1cc(/N=N/c2cccc3ccccc23)c(O)c2ncccc12 | 37.8 µM (inactive) | 26.9 µM (inactive) | 16 µM (inactive) | > 100 µM (inactive) | > 100 µM (inactive) | 25.4 µM (inactive) | 31.8 µM (inactive) | 60.8 µM (inactive) | 47.2 µM | 47.8 µM (inactive) | > 100 µM (inactive) | 60.3 µM (inactive) | 55.7 µM (inactive) | 65.2 µM (inactive) | 23.2 µM (inactive) | > 100 µM (inactive) | > 100 µM (inactive) | – | – | –
COc1ccc(/C=C2\CCC(C)c3c2nc(N)c(C#N)c3-c2ccc(OC)c(OC)c2)cc1OC (stereo not drawn) | 5.08 µM (inactive) | 3.1 µM (inactive) | 5.7 µM (inactive) | 72.4 µM (inactive) | – | – | – | 66.4 µM (inactive) | 5.71 µM | 32.3 µM (inactive) | 18.5 µM (inactive) | – | 1.13 µM (inactive) | 6.73 µM (inactive) | – | 45.8 µM (inactive) | 8 µM (inactive) | 9.16 µM (inactive) | – | –
CC12CCC(=O)N1c1cncnc1N2 (stereo not drawn) | 0.0374 µM (active) | > 10 µM (inactive) | > 10 µM (inactive) | > 10 µM (inactive) | > 10 µM (inactive) | > 10 µM (inactive) | – | > 10 µM (inactive) | > 10 µM | > 10 µM (inactive) | > 10 µM (inactive) | > 10 µM (inactive) | – | > 10 µM (inactive) | > 10 µM (inactive) | – | > 10 µM (inactive) | > 10 µM (inactive) | > 10 µM (inactive) | > 10 µM (inactive)
CC(C)=C[C@H]1CCC2(OCCO2)[C@]1(C)COCc1ccccc1 | – | 13.8 µM (inactive) | 14.1 µM (inactive) | 37.7 µM (inactive) | – | 22.3 µM (inactive) | 23.7 µM (inactive) | 17.2 µM (inactive) | 39.5 µM | 33.3 µM (inactive) | 32.4 µM (inactive) | 45.4 µM (inactive) | 35.2 µM (inactive) | 36.8 µM (inactive) | – | 60.5 µM (inactive) | 42.7 µM (inactive) | – | 16.4 µM (inactive) | 29 µM (inactive)
CN(CCSCCN(C)C(=O)OC(C)(C)C)C(=O)OC(C)(C)C | – | > 100 µM (inactive) | – | > 100 µM (inactive) | > 100 µM (inactive) | > 100 µM (inactive) | – | > 100 µM (inactive) | > 100 µM | > 100 µM (inactive) | > 100 µM (inactive) | 61.5 µM (inactive) | – | > 100 µM (inactive) | > 100 µM (inactive) | > 100 µM (inactive) | > 100 µM (inactive) | > 100 µM (inactive) | > 100 µM (inactive) | > 100 µM (inactive)
COc1ccc(N2C(=O)c3cc([N+](=O)[O-])cnc3S2(=O)=O)cc1 | > 100 µM (inactive) | > 100 µM (inactive) | > 100 µM (inactive) | > 100 µM (inactive) | > 100 µM (inactive) | > 100 µM (inactive) | – | > 100 µM (inactive) | > 100 µM | – | > 100 µM (inactive) | > 100 µM (inactive) | – | > 100 µM (inactive) | > 100 µM (inactive) | > 100 µM (inactive) | > 100 µM (inactive) | > 100 µM (inactive) | > 100 µM (inactive) | > 100 µM (inactive)
Cc1cccc2oc3c(CC(=O)O)cccc3c(=O)c12 | > 100 µM (inactive) | > 100 µM (inactive) | > 100 µM (inactive) | > 100 µM (inactive) | > 100 µM (inactive) | > 100 µM (inactive) | > 100 µM (inactive) | > 100 µM (inactive) | > 100 µM | > 100 µM (inactive) | – | – | – | > 100 µM (inactive) | > 100 µM (inactive) | > 100 µM (inactive) | > 100 µM (inactive) | > 100 µM (inactive) | 20.5 µM (inactive) | > 100 µM (inactive)
